Entries after “also recorded” stand apart in the source; their conditions may differ. Marks after values point to notes of the source that are not given here.
What was measured:
[1] = test system: Landrace x Large White reserve sows; experiment: B-Scan ultrasonic monitoring of follicles: ovulation time and ovarian cyst in gilts (Example 2); type: in vivo, pigs
Text: Landrace x Large White reserve sows, about 230 days old, were randomly divided into a batch farrowing with FTAI and batch farrowing with FTAI combined with different doses of 1-[bis(4-cyanophenyl)methyl]-1,2,4-triazole groups, and during the experiment, the experimental sows in each group were fed regularly and gained free access to water according to the requirements of feeding management in the farm.
Referring to the dosage of 1-[bis(4-cyanophenyl)methyl]-1,2,4-triazole in clinical medicine and using standard weight-dosage conversion, the recommended dosage of 1-[bis(4-cyanophenyl)methyl]-1,2,4-triazole for sows was 50-150 μg/kg·BW/day, orally for consecutive 5 days, as derived by conversion. In addition, the applicant previously studied uniparous cows, and in the ovulation induction scheme, the reference dosage of 1-[bis(4-cyanophenyl)methyl]-1,2,4-triazole was 60-200 μg/kg·BW, administered in a single dose; furthermore, by means of conversion in conjunction with the dosage for model animals (mice) previously in the laboratory, various dosages were designed. The treatment methods of hormones and drugs for sows in each group were as follows: • batch farrowing with FTAI: the sows were fed with an altrenogest oral solution at 20 mg/animal at the same time every day, for 18 days; PMSG at 1000 IU/animal was injected intramuscularly 42 h after the last feeding with altrenogest, GnRH at 100 μg/animal was injected intramuscularly 80 h after the injection of PMSG, a first timed insemination was performed 24 h after the injection of GnRH, and a second timed insemination was performed 16 h after the first insemination.
Treatment group 1: the hormone treatment and mating schemes for gilts were the same as FTAI. The difference lay in that PMSG at 1000 IU/gilt was injected intramuscularly 42 h after the last feeding with altrenogest, and 1-[bis(4-cyanophenyl)methyl]-1,2,4-triazole at 12 μg/kg·BW/day was administered orally 8 h after the injection of PMSG, for 1 day.
Treatment group 2: the hormone treatment and mating schemes for gilts were the same as FTAI. The difference lay in that PMSG at 1000 IU/gilt was injected intramuscularly 42 h after the last feeding with altrenogest, and 1-[bis(4-cyanophenyl)methyl]-1,2,4-triazole at 12 μg/kg·BW/day was administered orally 8 h after the injection of PMSG, for 2 days.
Treatment group 3: the hormone treatment and mating schemes for gilts were the same as FTAI. The difference lay in that PMSG at 1000 IU/gilt was injected intramuscularly 42 h after the last feeding with altrenogest, and 1-[bis(4-cyanophenyl)methyl]-1,2,4-triazole at 20 μg/kg·BW/day was administered orally 8 h after the injection of PMSG, for 1 day.
Treatment group 4: the hormone treatment and mating schemes for sows were the same as FTAI. The difference lay in that PMSG at 1000 IU/gilt was injected intramuscularly 42 h after the last feeding with altrenogest, and 1-[bis (4-cyanophenyl)methyl]-1,2,4-triazole at 20 μg/kg·BW/day was administered orally 8 h after the injection of PMSG, for 2 days.
Treatment group 5: the hormone treatment and mating schemes for gilts were the same as FTAI. The difference lay in that PMSG at 1000 IU/animal was injected intramuscularly 42 h after the last feeding with altrenogest, and 1-[bis(4-cyanophenyl)methyl]-1,2,4-triazole at 20 μg/kg·BW/day was administered orally 8 h after the injection of PMSG, for 3 days.
Treatment group 6: the hormone treatment and mating schemes for gilts were the same as FTAI. The difference lay in that PMSG at 1000 IU/animal was injected intramuscularly 42 h after the last feeding with altrenogest, and 1-[bis(4-cyanophenyl)methyl]-1,2,4-triazole at 20 μg/kg·BW/day was administered orally 8 h after the injection of PMSG, for 5 days.
Treatment group 7: the hormone treatment and mating schemes for gilts were the same as FTAI. […]

[2] = test system: ENPP2, LPAR3 and PTGS2 mRNA (LPA signalling pathway) in the uterus; experiment: Quantitative PCR of key molecules in the LPA signalling pathway in gilt uteri (Example 4); type: in vivo, pigs; settings: gilts, 12 μg/kg·BW
Protocol: The gilts in the batch farrowing with FTAI and the gilts in the batch farrowing with FTAI supplementing once with 1-[bis(4-cyanophenyl)methyl]-1,2,4-triazole (12 μg/kg·BW) were slaughtered. The gilts were slaughtered 16 days after mating, with 4 gilts slaughtered per group. By judging the number of corpora lutea on the ovary, the number of ovulated oocytes (each corpus luteum represented an ovulation point) was confirmed.
Uteri were isolated from the gilts for RNA extraction, reverse transcription and quantitative PCR detection of several key molecules in the LPA signalling pathway, i.e., detection of ENPP2 (a gene for the expression of ATX, the key enzyme of LPA synthesis), LPAR3 (LPA receptor gene), and PTGS2 (a key gene downstream of LPAR).

[3] = 80 and 160 μg/kg·BW/day for 5 consecutive days (treatment groups 9 and 10)
[4] = Example 2 Treatment group 1: 12 μg/kg·BW/day orally, 1 day, gilts
[5] = Example 2 Treatment group 2: 12 μg/kg·BW/day orally, 2 days, gilts
[6] = Example 2 Treatment group 3: 20 μg/kg·BW/day orally, 1 day, gilts
[7] = Example 2 Treatment group 4: 20 μg/kg·BW/day orally, 2 days, gilts
[8] = Example 2 Treatment group 5: 20 μg/kg·BW/day orally, 3 days, gilts
[9] = Example 2 Treatment group 6: 20 μg/kg·BW/day orally, 5 days, gilts
[10] = Example 2 Treatment group 7: 40 μg/kg·BW/day orally, 1 day, gilts
[11] = Example 2 Treatment group 8: 40 μg/kg·BW/day orally, 5 days, gilts
[12] = Example 2 Treatment group 9: 80 μg/kg·BW/day orally, 5 days, gilts
[13] = Example 2 Treatment group 10: 160 μg/kg·BW/day orally, 5 days, gilts
[14] = gilts, with the increase of the dosage
[15] = low-dose, batch farrowing with FTAI

**Q.** For `N#Cc1ccc(C(c2ccc(C#N)cc2)n2cncn2)cc1` [1-[bis(4-cyanophenyl)methyl]-1,2,4-triazole], which ovarian cyst [1, 3] is on record?
**A.** had a cyst problem

**Q.** What about the “ovulation for 10 days after stopping taking altrenogest” value [1, 3] of the same molecule?
**A.** did not ovulate

**Q.** What about the “Cyst ratio (%)” value [1, 4] of the same molecule?
**A.** 0.00^b %

**Q.** And the “Interval from stopping taking Altrenogest to ovulation (h)” value (“Interval” for short) [1, 4]?
**A.** 170.13 ± 3.87^a h

**Q.** And the “Number of animals with ovarian cyst” value [1, 4]?
**A.** 0

**Q.** What about the “Number of animals with ovulation” value [1, 4] of the same molecule?
**A.** 27

**Q.** And the “Cyst ratio (%)” value [1, 5]?
**A.** 0.00^b %

**Q.** What about the “Interval” value [1, 5] of the same molecule?
**A.** 172.15 ± 3.34^a h

**Q.** What about the “Number of animals with ovarian cyst” value [1, 5] of the same molecule?
**A.** 0

**Q.** And the “Number of animals with ovulation” value [1, 5]?
**A.** 23

**Q.** What about the “Cyst ratio (%)” value [1, 6] of the same molecule?
**A.** 0.00^b %

**Q.** And the “Interval” value [1, 6]?
**A.** 169.57 ± 2.19^a h

**Q.** What about the “Number of animals with ovarian cyst” value [1, 6] of the same molecule?
**A.** 0

**Q.** And the “Number of animals with ovulation” value [1, 6]?
**A.** 22

**Q.** And the “Cyst ratio (%)” value [1, 7]?
**A.** 0.00^b %

**Q.** What about the “Interval” value [1, 7] of the same molecule?
**A.** 194.25 ± 2.96^b h

**Q.** And the “Number of animals with ovarian cyst” value [1, 7]?
**A.** 0

**Q.** What about the “Number of animals with ovulation” value [1, 7] of the same molecule?
**A.** 21

**Q.** And the “Cyst ratio (%)” value [1, 8]?
**A.** 11.53^c %

**Q.** And the “Interval” value [1, 8]?
**A.** 177.79 ± 4.75^a h

**Q.** And the “Number of animals with ovarian cyst” value [1, 8]?
**A.** 3

**Q.** What about the “Number of animals with ovulation” value [1, 8] of the same molecule?
**A.** 24

**Q.** And the “Cyst ratio (%)” value [1, 9]?
**A.** 15.38^c %

**Q.** What about the “Interval” value [1, 9] of the same molecule?
**A.** 187.67 ± 3.69^b h

**Q.** And the “Number of animals with ovarian cyst” value [1, 9]?
**A.** 4

**Q.** And the “Number of animals with ovulation” value [1, 9]?
**A.** 20

**Q.** And the “Cyst ratio (%)” value [1, 10]?
**A.** 11.53^c %

**Q.** And the “Interval” value [1, 10]?
**A.** 191.50 ± 5.74^b h

**Q.** And the “Number of animals with ovarian cyst” value [1, 10]?
**A.** 3

**Q.** And the “Number of animals with ovulation” value [1, 10]?
**A.** 22

**Q.** And the “Cyst ratio (%)” value [1, 11]?
**A.** 79.17^c %

**Q.** What about the “Interval” value [1, 11] of the same molecule?
**A.** 210.00 ± 2.65^b h

**Q.** And the “Number of animals with ovarian cyst” value [1, 11]?
**A.** 19

**Q.** What about the “Number of animals with ovulation” value [1, 11] of the same molecule?
**A.** 4

**Q.** What about the “Cyst ratio (%)” value [1, 12] of the same molecule?
**A.** 100.00^c %

**Q.** And the “Number of animals with ovarian cyst” value [1, 12]?
**A.** 24

**Q.** And the “Number of animals with ovulation” value [1, 12]?
**A.** 0

**Q.** And the “Cyst ratio (%)” value [1, 13]?
**A.** 100.00^c %

**Q.** What about the “Number of animals with ovarian cyst” value [1, 13] of the same molecule?
**A.** 24

**Q.** And the “Number of animals with ovulation” value [1, 13]?
**A.** 0

**Q.** And the ovulation time ([1]; gilts, treatment groups 1, 2, 3, and 5, compared with batch farrowing with FTAI)?
**A.** no significant difference

**Q.** What about the “number of ovarian cysts” value [1, 14] of the same molecule?
**A.** increased

**Q.** What about the “time from stopping taking altrenogest to ovulation” value [1, 14] of the same molecule?
**A.** prolonged

**Q.** And the ovarian cysts ([1]; high-dose)?
**A.** caused ovarian cysts

**Q.** What about the ovulation in sows ([1]; high-dose) of the same molecule?
**A.** inhibited

**Q.** What about the ovarian cyst [1, 15] of the same molecule?
**A.** no ovarian cyst was caused

**Q.** What about the ovulation time [1, 15] of the same molecule?
**A.** no significant change

**Q.** And the “ovarian cyst, B-scan ultrasonic inspection” value ([1]; sows, high-dose 80 μg/kg·BW (FIG. 5))?
**A.** presented as cyst; also recorded: ovarian cyst is presented

**Q.** And the “ovulation, B-scan ultrasonic inspection” value ([1]; sows, high-dose 80 μg/kg·BW (FIG. 5), day 10 after stopping altrenogest)?
**A.** no ovulation was observed

**Q.** What about the “ovulation, B-scan ultrasonic inspection” value ([1]; sows, low-dose 12 μg/kg·BW (FIG. 4)) of the same molecule?
**A.** ovulate normally

**Q.** What about the “Enpp2, Lpar3 and ptgs2 mRNA levels in the uteri” value ([2]; compared with batch farrowing with FTAI group) of the same molecule?
**A.** significantly higher

**Q.** And the “Enpp2, Lpar3 and ptgs2 mRNA levels in the uteri” value ([2]; compared with natural estrus group)?
**A.** no significant difference

Source: patent US12678488B2, “Batch management method for improving farrowing rate or number of piglets born alive in swine” (priority 2024, dated 2026)
